Measured values as given in article PMC10599993, “The PTPN2/PTPN1 inhibitor ABBV-CLS-484 unleashes potent anti-tumour immunity” (Nature, 2023).
pIC50: −log10 of the molar value.

What was measured:
PTPN1 = biological target: T1, PTPN1 (Homo sapiens, UniProt P18031); assay: mobility shift enzyme assay with labelled insulin receptor phosphopeptide (crystal with PTPN1 mentioned, data not shown); format: biochemical
T1 construct: full-length recombinant

5-HT transporter = biological target: T2, 5-HT transporter (Homo sapiens, UniProt P31645); assay: biochemical; parameters: Safety pharmacology off-target panel at Eurofins, radioligand binding with agonist or antagonist radioligand (Supplementary Table 2); details: antagonist radioligand
T2 construct: gene SLC6A4
T2 sequence (P31645 whole entry): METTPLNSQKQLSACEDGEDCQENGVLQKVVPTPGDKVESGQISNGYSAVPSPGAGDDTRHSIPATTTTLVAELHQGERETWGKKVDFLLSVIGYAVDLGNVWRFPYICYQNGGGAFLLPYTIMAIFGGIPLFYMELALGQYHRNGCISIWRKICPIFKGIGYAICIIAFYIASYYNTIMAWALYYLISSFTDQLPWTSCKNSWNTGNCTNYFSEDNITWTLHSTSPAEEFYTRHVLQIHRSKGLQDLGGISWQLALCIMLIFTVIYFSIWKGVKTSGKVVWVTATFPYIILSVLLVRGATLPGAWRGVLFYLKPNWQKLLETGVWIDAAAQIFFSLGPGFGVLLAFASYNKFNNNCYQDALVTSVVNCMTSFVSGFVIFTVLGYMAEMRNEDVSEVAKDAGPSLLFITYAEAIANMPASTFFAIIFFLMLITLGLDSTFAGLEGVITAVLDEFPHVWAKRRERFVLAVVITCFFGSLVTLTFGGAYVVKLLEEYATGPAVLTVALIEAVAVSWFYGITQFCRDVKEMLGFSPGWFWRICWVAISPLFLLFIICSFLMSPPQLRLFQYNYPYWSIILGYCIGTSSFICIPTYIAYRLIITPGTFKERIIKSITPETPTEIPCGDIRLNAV
Method: (§1) Wide-range phosphatase, kinase and preclinical safety pharmacology off-target activity screens were conducted at Eurofins (Extended Data Table 5 and Supplementary Tables 1 and 2). A small phosphatase panel was developed at AbbVie to assess IC50 values on select phosphatases. The following enzymes used in the phosphatase selectivity panel were purchased from Eurofins: PTPN1 (PTP1B; 14–621), PTPN2 (TC-PTP; 14–646), PTPN9 (14–592), SHP1 (14–591) and SHP2 (14–622). The catalytic activity of the phosphatase was monitored using the small-molecule substrate DiFMUP (ThermoFisher) in a fluorescence assay format. In brief, the phosphatase reactions were performed at room temperature in the following assay buffer: 50 mM HEPES, pH 7.2, 100 mM NaCl, 1 mM EDTA, 0.005% Tween-20 and 5 mM TCEP. Each phosphatase was incubated with increasing concentrations of AC484 for 5 min, after which the substrate DiFMUP was added and incubated at 25 °C for 30 min. The final concentration of the enzyme and substrate was maintained at 0.5 nM and 5 μM, respectively, in all the assays. The reaction was then quenched by the addition of a 100 μM solution of bpV(Phen) (Enzo Life Sciences). The fluorescence signal was monitored using an Envision microplate reader (Perkin-Elmer) using excitation and emission wavelengths of 340 nm and 450 nm, respectively. The dose–response curves for the inhibitors were analysed using normalized IC50 regression curve fitting with control-based normalization. Supplementary file 41586_2023_6575_MOESM4_ESM.xlsx: Supplementary Table 2 AC484 receptor selectivity screen.

5-HT2B = biological target: T3, 5-HT2B (Homo sapiens, UniProt P41595); assay: biochemical; parameters: Safety pharmacology off-target panel at Eurofins, radioligand binding with agonist or antagonist radioligand (Supplementary Table 2); details: agonist radioligand
T3 construct: gene HTR2B
Method: as §1

5-HT2C = biological target: T4, 5-HT2C (Homo sapiens, UniProt P28335); assay: biochemical; parameters: Safety pharmacology off-target panel at Eurofins, radioligand binding with agonist or antagonist radioligand (Supplementary Table 2); details: antagonist radioligand
T4 construct: gene HTR2C
T4 sequence (P28335 whole entry): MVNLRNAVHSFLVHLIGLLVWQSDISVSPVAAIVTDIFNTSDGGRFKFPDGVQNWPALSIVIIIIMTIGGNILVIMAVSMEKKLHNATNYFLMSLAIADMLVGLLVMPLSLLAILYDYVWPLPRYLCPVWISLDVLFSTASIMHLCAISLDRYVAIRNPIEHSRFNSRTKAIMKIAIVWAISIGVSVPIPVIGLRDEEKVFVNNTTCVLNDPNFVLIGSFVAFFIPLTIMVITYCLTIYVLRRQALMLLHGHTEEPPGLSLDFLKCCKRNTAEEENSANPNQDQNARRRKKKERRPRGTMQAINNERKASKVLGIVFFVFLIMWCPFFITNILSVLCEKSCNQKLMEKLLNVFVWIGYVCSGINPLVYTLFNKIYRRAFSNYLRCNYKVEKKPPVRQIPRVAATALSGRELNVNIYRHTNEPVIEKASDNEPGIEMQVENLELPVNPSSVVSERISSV
Method: as §1

5-HT4e = biological target: T5, 5-HT4e (Homo sapiens, UniProt Q13639); assay: biochemical; parameters: Safety pharmacology off-target panel at Eurofins, radioligand binding with agonist or antagonist radioligand (Supplementary Table 2); details: antagonist radioligand
T5 construct: gene HTR4; 5-HT4e isoform
T5 sequence (Q13639 whole entry, canonical isoform): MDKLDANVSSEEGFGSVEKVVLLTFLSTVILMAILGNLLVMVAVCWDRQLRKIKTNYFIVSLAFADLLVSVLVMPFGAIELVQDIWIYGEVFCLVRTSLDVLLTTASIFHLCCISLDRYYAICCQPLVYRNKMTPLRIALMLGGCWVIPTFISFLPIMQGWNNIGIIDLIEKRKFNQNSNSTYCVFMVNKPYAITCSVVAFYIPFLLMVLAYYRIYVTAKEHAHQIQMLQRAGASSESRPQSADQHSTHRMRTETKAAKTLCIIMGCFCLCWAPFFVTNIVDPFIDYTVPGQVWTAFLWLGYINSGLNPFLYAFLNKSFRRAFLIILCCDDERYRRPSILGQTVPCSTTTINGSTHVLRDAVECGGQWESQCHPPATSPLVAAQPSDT
Method: as §1

AT1 (h) = biological target: T6, AT1 (h) (Homo sapiens, UniProt P30556); assay: biochemical; parameters: Safety pharmacology off-target panel at Eurofins, radioligand binding with agonist or antagonist radioligand (Supplementary Table 2); details: antagonist radioligand
T6 construct: gene AGTR1
Method: as §1

CB2 = biological target: T7, CB2 (Homo sapiens, UniProt P34972); assay: biochemical; parameters: Safety pharmacology off-target panel at Eurofins, radioligand binding with agonist or antagonist radioligand (Supplementary Table 2); details: agonist radioligand
T7 construct: gene CNR2
Method: as §1

D1 = biological target: T8, D1 (Homo sapiens, UniProt P21728); assay: biochemical; parameters: Safety pharmacology off-target panel at Eurofins, radioligand binding with agonist or antagonist radioligand (Supplementary Table 2); details: antagonist radioligand
T8 construct: gene DRD1
Method: as §1

EP2 = biological target: T9, EP2 (Homo sapiens, UniProt P43116); assay: biochemical; parameters: Safety pharmacology off-target panel at Eurofins, radioligand binding with agonist or antagonist radioligand (Supplementary Table 2); details: agonist radioligand
T9 construct: gene PTGER2
Method: as §1

ETB = biological target: T10, ETB (Homo sapiens, UniProt P24530); assay: biochemical; parameters: Safety pharmacology off-target panel at Eurofins, radioligand binding with agonist or antagonist radioligand (Supplementary Table 2); details: agonist radioligand
T10 construct: gene EDNRB
Method: as §1

Estrogen ER alpha = biological target: T11, Estrogen ER alpha (Homo sapiens, UniProt P03372); assay: biochemical; parameters: Safety pharmacology off-target panel at Eurofins, radioligand binding with agonist or antagonist radioligand (Supplementary Table 2); details: agonist radioligand
T11 construct: gene ESR1
T11 sequence (P03372 whole entry): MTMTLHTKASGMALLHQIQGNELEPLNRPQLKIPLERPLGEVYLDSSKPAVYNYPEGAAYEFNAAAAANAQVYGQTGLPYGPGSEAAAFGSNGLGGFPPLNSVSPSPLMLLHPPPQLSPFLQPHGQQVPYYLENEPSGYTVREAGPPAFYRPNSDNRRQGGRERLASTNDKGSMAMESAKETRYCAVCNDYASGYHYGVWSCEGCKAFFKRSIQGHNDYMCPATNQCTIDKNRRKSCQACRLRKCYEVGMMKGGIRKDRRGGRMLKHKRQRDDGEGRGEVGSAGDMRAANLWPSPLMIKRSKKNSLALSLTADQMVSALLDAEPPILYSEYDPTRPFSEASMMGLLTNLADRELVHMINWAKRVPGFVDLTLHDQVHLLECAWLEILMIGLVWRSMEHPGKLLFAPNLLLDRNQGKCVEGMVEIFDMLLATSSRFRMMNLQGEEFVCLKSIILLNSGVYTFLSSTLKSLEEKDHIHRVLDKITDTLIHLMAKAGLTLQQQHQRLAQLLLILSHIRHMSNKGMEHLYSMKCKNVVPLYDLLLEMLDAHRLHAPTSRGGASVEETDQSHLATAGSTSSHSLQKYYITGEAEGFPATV
Method: as §1

GABAA1 (a1.b2.g2) = biological target: T12, GABAA1 (a1.b2.g2) (Homo sapiens, UniProt P14867+P18507+P47870); assay: biochemical; parameters: Safety pharmacology off-target panel at Eurofins, radioligand binding with agonist or antagonist radioligand (Supplementary Table 2); details: agonist radioligand
T12 construct: gene GABRA1; a1.b2.g2
T12 sequence (P14867 whole entry): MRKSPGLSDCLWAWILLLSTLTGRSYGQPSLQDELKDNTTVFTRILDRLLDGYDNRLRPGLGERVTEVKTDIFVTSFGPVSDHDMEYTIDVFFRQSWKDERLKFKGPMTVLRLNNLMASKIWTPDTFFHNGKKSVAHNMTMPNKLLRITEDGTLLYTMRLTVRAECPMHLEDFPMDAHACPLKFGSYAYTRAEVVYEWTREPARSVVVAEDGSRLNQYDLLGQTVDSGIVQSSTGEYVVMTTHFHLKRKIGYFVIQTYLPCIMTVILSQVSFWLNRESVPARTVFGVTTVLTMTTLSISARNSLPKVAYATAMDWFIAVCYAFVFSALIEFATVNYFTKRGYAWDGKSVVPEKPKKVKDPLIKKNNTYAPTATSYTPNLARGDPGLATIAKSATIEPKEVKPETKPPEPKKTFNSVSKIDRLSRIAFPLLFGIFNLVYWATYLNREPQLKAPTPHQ
T12 sequence (P18507 whole entry): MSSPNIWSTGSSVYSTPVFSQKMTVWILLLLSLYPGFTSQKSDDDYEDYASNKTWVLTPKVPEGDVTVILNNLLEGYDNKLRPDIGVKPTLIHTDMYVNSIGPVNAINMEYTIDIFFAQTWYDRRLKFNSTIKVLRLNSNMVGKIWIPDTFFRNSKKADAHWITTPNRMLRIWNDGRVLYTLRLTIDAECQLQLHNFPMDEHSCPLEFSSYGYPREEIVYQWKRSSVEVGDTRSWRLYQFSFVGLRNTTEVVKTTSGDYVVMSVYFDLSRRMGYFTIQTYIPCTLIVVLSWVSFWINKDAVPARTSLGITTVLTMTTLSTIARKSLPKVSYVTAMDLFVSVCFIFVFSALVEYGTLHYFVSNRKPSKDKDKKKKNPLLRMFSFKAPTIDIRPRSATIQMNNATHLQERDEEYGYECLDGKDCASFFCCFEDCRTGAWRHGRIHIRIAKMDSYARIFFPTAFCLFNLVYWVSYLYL
T12 sequence (P47870 whole entry): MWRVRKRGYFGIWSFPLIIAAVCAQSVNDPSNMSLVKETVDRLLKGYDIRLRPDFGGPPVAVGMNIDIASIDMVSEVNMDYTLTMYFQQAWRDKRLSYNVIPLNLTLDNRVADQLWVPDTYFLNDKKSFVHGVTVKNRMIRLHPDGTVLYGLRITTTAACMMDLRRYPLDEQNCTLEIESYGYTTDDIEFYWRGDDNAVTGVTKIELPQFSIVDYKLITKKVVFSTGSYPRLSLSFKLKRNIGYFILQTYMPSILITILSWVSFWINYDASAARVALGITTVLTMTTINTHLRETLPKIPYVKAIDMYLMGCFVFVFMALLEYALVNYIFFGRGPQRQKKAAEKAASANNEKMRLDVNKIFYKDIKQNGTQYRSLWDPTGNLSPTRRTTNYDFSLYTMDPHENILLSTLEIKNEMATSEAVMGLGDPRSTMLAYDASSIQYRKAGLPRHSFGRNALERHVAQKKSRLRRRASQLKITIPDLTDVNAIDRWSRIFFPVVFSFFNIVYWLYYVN
Method: as §1

MT2 (ML1B) = biological target: T13, MT2 (ML1B) (Homo sapiens, UniProt P49286); assay: biochemical; parameters: Safety pharmacology off-target panel at Eurofins, radioligand binding with agonist or antagonist radioligand (Supplementary Table 2); details: agonist radioligand
T13 construct: gene MTNR1B; ML1B
Method: as §1

PPARg = PPARg (Homo sapiens, UniProt P37231); assay: biochemical; parameters: Safety pharmacology off-target panel at Eurofins, radioligand binding with agonist or antagonist radioligand (Supplementary Table 2); details: agonist radioligand
Method: as §1

a1A (h) = biological target: T14, a1A (h) (Homo sapiens, UniProt P35348); assay: biochemical; parameters: Safety pharmacology off-target panel at Eurofins, radioligand binding with agonist or antagonist radioligand (Supplementary Table 2); details: antagonist radioligand
T14 construct: gene ADRA1A
Method: as §1

a1B (h) = biological target: T15, a1B (h) (Homo sapiens, UniProt P35368); assay: biochemical; parameters: Safety pharmacology off-target panel at Eurofins, radioligand binding with agonist or antagonist radioligand (Supplementary Table 2); details: antagonist radioligand
T15 construct: gene ADRA1B
T15 sequence (P35368 whole entry): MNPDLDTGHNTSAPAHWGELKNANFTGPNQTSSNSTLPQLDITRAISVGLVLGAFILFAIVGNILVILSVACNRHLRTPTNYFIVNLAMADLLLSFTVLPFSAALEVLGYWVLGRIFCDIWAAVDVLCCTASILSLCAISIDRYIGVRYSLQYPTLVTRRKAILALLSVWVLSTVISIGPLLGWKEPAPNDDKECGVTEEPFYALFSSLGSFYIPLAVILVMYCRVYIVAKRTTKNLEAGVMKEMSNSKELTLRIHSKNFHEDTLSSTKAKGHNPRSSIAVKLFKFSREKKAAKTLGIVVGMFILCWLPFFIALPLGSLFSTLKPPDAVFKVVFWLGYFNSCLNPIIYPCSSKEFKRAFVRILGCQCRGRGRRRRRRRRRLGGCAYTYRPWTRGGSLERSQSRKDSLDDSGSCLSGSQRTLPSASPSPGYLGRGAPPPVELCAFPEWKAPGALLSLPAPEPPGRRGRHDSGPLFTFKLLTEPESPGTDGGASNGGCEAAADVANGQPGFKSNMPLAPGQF
Method: as §1

a2A (h) = biological target: T16, a2A (h) (Homo sapiens, UniProt P08913); assay: biochemical; parameters: Safety pharmacology off-target panel at Eurofins, radioligand binding with agonist or antagonist radioligand (Supplementary Table 2); details: antagonist radioligand
T16 construct: gene ADRA2A
Method: as §1

a2B (h) = biological target: T17, a2B (h) (Homo sapiens, UniProt P18089); assay: biochemical; parameters: Safety pharmacology off-target panel at Eurofins, radioligand binding with agonist or antagonist radioligand (Supplementary Table 2); details: antagonist radioligand
T17 construct: gene ADRA2B
Method: as §1

b1 (h) = biological target: T18, b1 (h) (Homo sapiens, UniProt P08588); assay: biochemical; parameters: Safety pharmacology off-target panel at Eurofins, radioligand binding with agonist or antagonist radioligand (Supplementary Table 2); details: agonist radioligand
T18 construct: gene ADRB1
T18 sequence (P08588 whole entry): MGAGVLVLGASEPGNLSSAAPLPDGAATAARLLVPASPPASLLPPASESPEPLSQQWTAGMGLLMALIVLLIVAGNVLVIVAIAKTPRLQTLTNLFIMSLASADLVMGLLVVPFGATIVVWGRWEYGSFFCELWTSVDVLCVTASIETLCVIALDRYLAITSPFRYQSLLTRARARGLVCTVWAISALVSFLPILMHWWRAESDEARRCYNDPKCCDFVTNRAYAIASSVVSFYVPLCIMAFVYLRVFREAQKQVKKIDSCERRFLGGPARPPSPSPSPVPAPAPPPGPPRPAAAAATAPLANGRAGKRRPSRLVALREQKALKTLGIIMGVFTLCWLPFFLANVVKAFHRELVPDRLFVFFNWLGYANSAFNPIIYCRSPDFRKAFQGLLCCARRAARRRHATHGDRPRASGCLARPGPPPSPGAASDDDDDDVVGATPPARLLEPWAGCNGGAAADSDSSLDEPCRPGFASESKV
Method: as §1

T1 sequence (P18031 whole entry): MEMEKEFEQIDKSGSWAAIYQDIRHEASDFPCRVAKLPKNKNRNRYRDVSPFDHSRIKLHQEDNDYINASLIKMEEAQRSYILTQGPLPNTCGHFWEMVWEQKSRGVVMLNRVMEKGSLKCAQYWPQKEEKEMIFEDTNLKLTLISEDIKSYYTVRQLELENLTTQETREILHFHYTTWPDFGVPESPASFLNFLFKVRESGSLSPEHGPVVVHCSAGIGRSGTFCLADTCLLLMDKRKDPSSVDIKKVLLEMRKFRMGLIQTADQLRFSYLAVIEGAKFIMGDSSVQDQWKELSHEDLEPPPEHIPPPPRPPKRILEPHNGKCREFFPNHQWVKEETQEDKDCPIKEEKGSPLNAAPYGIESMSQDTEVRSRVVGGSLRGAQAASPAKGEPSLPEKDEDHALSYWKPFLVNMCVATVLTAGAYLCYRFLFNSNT

## CC(C)CCN[C@@H]1CCc2cc(O)c(N3CC(=O)NS3(=O)=O)c(F)c2C1 [AC484, ABBV-CLS-484]
PTPN1
  pIC50: 8.60
5-HT transporter
  AC50: > 0.01 mM
5-HT2B
  AC50: > 0.01 mM
5-HT2C
  AC50: > 0.01 mM
5-HT4e
  AC50: > 0.01 mM
AT1 (h)
  AC50: > 0.01 mM
CB2
  AC50: > 0.01 mM
D1
  AC50: > 0.01 mM
EP2
  AC50: > 0.01 mM
ETB
  AC50: > 0.01 mM
Estrogen ER alpha
  AC50: > 0.01 mM
GABAA1 (a1.b2.g2)
  AC50: > 0.01 mM
MT2 (ML1B)
  AC50: > 0.01 mM
PPARg
  AC50: > 0.01 mM
a1A (h)
  AC50: > 0.01 mM
a1B (h)
  AC50: > 0.01 mM
a2A (h)
  AC50: > 0.01 mM
a2B (h)
  AC50: > 0.01 mM
b1 (h)
  AC50: > 0.01 mM
